ChEMBL document CHEMBL1137937, “Synthesis and pharmacological evaluation of prenylated and benzylated pterocarpans against snake venom” (2004)

Experiments:
Assay type in all cases: functional
Mus musculus [1] = species on record: Mus musculus; assay: Inhibition of the increase of the rate of CK release induced by […] of Bothrops jararacussu venom on isolated EDL mouse muscles after 60 min of exposure at 0.1-10 uM
Mus musculus [2] = species on record: Mus musculus; assay: Inhibition of the increase of the rate of CK release induced by […] of Bothrops jararacussu venom on isolated EDL mouse muscles after 60 min of exposure at 0.1-30 uM
Mus musculus [3] = species on record: Mus musculus; assay: Inhibition of the increase of the rate of CK release induced by […] of Bothrops jararacussu venom on isolated EDL mouse muscles after 60 min of exposure at 0.1-1.0 uM
Mus musculus [4] = species on record: Mus musculus; assay: Inhibition of the increase of the rate of CK release induced by […] of Bothrops jararacussu venom on isolated EDL mouse muscles after 60 min of exposure at 10-30 uM

| SMILES | Inhibition (Mus musculus [2]) [%] | other results |
| --- | --- | --- |
| Oc1ccc2c(c1Cc1ccccc1)OC[C@H]1c3cc4c(cc3O[C@@H]21)OCO4 |  | Inhibition (Mus musculus [1]): >70% |
| Oc1ccc2c(c1)OC[C@H]1c3cc4c(c(Cc5ccccc5)c3O[C@@H]21)OCO4 | 0 |  |
| CC(C)=CCc1c2c(cc3c1O[C@H]1c4ccc(O)c(CC=C(C)C)c4OC[C@@H]31)OCO2 | 0 |  |
| Oc1ccc2c(c1Cc1ccccc1)OC[C@H]1c3cc4c(c(Cc5ccccc5)c3O[C@@H]21)OCO4 | 0 |  |
| CC(C)=CCc1c(O)ccc2c1OC[C@H]1c3cc4c(cc3O[C@@H]21)OCO4 |  | Inhibition (Mus musculus [3]): >40%; Inhibition (Mus musculus [4]): 0% |
| Oc1ccc2c(c1)OC[C@H]1c3cc4c(cc3O[C@@H]21)OCO4 [MAACKIAIN] | 0 |  |
| CC(C)=CCc1c2c(cc3c1O[C@H]1c4ccc(O)cc4OC[C@@H]31)OCO2 | 0 |  |
